{
  "source": "patent US11111238B2",
  "about": "“Coumarin derivatives, processes for their preparation and uses thereof for the treatment of cancer” (Lead Discovery Center GmbH, priority 2017, dated 2021)",
  "key": {"[1]": {"system": "human DLD-1 colon carcinoma xenograft", "assay": "Therapeutic effect on human DLD-1 colon carcinoma xenograft in nude mice", "quoted_text": "(§1) DLD-1 colon carcinoma cells (5×10^6 cells in 100 μL of PBS/Matrigel), isolated during exponential growth phase from in vitro cell culture, were transplanted s.c. into each female BALB/c nude mouse at day 0. Mice were kept under strictly controlled and standardized barrier conditions in IVC.\n(§2) Sorafenib) (Nexavar®, which is an approved multi-kinase inhibitor/cytostatic from Bayer A G, was used as a positive control. Body weight and tumor volume (TV) were monitored two to three times per week.\n(§3) Mice of groups 3, 4 and 5 were treated again at the end of the study period and blood samples were taken to generate plasma 1 h prior and 1 h post treatment. In addition, tumor and tissue samples were isolated, divided into two parts and snap frozen in liquid nitrogen. Mice of groups 1-5 were sacrificed at day 39. Gross autopsy was performed from all mice."}, "[2]": {"biological_target": "mitochondrial RNA-polymerase (POLRMT) (Mus musculus, UniProt Q8BKF1)", "sequence (Q8BKF1 42-1207)": "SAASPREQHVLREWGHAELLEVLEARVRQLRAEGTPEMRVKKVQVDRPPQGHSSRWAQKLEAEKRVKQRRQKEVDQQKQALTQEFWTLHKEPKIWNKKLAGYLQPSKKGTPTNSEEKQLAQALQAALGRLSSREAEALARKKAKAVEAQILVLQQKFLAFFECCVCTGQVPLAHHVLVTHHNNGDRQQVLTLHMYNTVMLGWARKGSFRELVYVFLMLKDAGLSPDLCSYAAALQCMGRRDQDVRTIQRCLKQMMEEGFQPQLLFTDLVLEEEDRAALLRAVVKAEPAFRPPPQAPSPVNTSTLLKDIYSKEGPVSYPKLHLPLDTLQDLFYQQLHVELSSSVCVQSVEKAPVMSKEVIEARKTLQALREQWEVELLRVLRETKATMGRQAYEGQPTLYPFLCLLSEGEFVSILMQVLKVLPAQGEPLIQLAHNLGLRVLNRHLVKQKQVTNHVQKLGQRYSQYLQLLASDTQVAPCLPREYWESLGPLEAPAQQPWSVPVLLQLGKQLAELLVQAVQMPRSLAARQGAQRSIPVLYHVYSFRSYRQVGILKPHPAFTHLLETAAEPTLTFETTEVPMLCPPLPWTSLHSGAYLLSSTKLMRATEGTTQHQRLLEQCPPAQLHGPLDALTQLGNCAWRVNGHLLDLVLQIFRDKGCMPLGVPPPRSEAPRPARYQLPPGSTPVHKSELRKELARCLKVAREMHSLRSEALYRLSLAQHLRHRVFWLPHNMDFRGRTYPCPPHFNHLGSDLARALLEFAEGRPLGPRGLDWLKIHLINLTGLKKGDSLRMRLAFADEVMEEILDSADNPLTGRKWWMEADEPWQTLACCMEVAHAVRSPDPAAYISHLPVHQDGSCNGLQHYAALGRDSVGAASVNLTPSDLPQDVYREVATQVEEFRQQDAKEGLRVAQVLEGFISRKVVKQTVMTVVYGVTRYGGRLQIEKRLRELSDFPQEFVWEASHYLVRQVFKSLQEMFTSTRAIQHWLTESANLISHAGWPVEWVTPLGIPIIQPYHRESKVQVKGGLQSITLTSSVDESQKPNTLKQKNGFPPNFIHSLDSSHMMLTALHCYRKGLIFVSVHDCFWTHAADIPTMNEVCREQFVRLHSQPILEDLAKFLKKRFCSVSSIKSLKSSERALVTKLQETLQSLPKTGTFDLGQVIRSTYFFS", "assay": "Homogeneous TR-FRET assay for mitochondrial transcription activity", "format": "biochemical", "details": "homogeneous TR-FRET assay according to Example 4; activity class", "summary_of_the_method": "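TR-FRET read-out (340 nm excitation, 665 nm emission) of a 407 bp transcript captured by Eu-streptavidin/biotin donor and ATTO647N acceptor DNA probes after EDTA stop. Transcription ran 2 h at RT with 500 μM […], mouse POLRMT/TFAM/TFB2M and LSP-plasmid template, after 10 min compound preincubation (10 μM or dilution series).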"}, "[3]": {"system": "human A2780 ovary carcinoma xenograft", "assay": "Therapeutic effect on human A2780 ovary carcinoma xenograft in nude mice", "format": "in vivo, nude mice (female NMRI: nu/nu)", "description": "In addition to the number of mice needed to build the groups necessary for the experiment, 8 additional mice were transplanted to have a sufficient number of satellite animals to improve stratification. Mice were stratified at day 7, when the mean tumor volume (TV) was 0.213±0.061 cm^3, (median TV=0.206 cm^3) into groups A-D with 8 mice each. 8 mice were excluded because of their tumor size.\nImmediately before use, compound 14 was dissolved to obtain an injection solution to be sufficient for one week of treatment. The treatments were indicated as described in Table 6. […] Mean tumor […]±S.D. (RTV) was calculated. […] Mice of groups A, C and D were sacrificed at day 34 (QDx28 for times 28. Gross autopsy was performed from all mice."}, "[4]": {"system": "human DLD-1 colon carcinoma xenograft", "details": "mouse, in vivo", "quoted_text": "as §1, §2, §3"}},
  "data": [
    {"smiles": "C[C@@H](Oc1ccc2c(-c3ccc(F)cc3Cl)cc(=O)oc2c1)C(=O)N1CCC[C@H](C(=O)O)C1", "note": "[Compound 14, (3S)-1-[(2R)-2-[4-(2-chloro-4-fluoro-phenyl)-2-oxo-chromen-7-yl]oxypropanoyl]piperidine-3-carboxylic acid]", "values": [
      {"measurement": "Tolerability", "setting": "[1]; DLD-1 xenograft, p.o. QD × 28 days", "value": "well tolerated"},
      {"measurement": "Therapeutic effect: tumor growth inhibition", "setting": "[1]; all doses", "value": "dose-dependent tumor growth inhibition"},
      {"measurement": "Therapeutic effect: tumor growth inhibition", "setting": "[1]; lowest dose (50 mg/kg)", "value": "minor effect"},
      {"measurement": "IC50", "setting": "[2]", "value": "< 0.02", "unit": "µM"},
      {"measurement": "Mean tumor weight", "setting": "[3]; 30 mg/kg p.o. QD × 21", "value": 0.629, "unit": "g"},
      {"measurement": "RTV (relative tumor volume at day 27 compared to D 7)", "setting": "[3]; 30 mg/kg p.o. QD × 21", "value": 6.8},
      {"measurement": "Tumor weight, % of control", "setting": "[3]; 30 mg/kg p.o. QD × 21", "value": "(75.5) %"},
      {"measurement": "Tumor growth inhibition (D 27): Mean TV", "setting": "[3]; 30 mg/kg p.o. QD × 21, day 27", "value": 1.300, "unit": "cm^3"},
      {"measurement": "optimum T/C value", "setting": "[3]; 50 mg/kg", "value": 88.3, "unit": "%"},
      {"measurement": "optimum T/C value", "setting": "[3]; 100 mg/kg", "value": 59.2, "unit": "%"},
      {"measurement": "Mean tumor weight", "setting": "[3]; 100 mg/kg p.o. QD × 28", "value": 0.491, "unit": "g"},
      {"measurement": "RTV (relative tumor volume at day 27 compared to D 7)", "setting": "[3]; 100 mg/kg p.o. QD × 28", "value": 5.1},
      {"measurement": "Tumor weight, % of control", "setting": "[3]; 100 mg/kg p.o. QD × 28", "value": "(60,0) %"},
      {"measurement": "Tumor growth inhibition (D 27): Mean TV", "setting": "[3]; 100 mg/kg p.o. QD × 28, day 27", "value": 0.715, "unit": "cm^3"},
      {"measurement": "optimum T/C value", "setting": "[3]; 200 mg/kg", "value": 24.9, "unit": "%"},
      {"measurement": "Mean tumor weight", "setting": "[3]; 200 mg/kg p.o. QD × 28", "value": 0.141, "unit": "g"},
      {"measurement": "RTV (relative tumor volume at day 27 compared to D 7)", "setting": "[3]; 200 mg/kg p.o. QD × 28", "value": 1.1},
      {"measurement": "Tumor weight, % of control", "setting": "[3]; 200 mg/kg p.o. QD × 28", "value": "(16.99) %"},
      {"measurement": "Tumor growth inhibition (D 27): Mean TV", "setting": "[3]; 200 mg/kg p.o. QD × 28, day 27", "value": 0.232, "unit": "cm^3"},
      {"measurement": "Tolerability", "setting": "[3]; A2780 xenograft, p.o. QD", "value": "well tolerated"},
      {"measurement": "Therapeutic effect: tumor growth inhibition", "setting": "[3]; all doses", "value": "dose-dependent tumor growth inhibition"},
      {"measurement": "Therapeutic effect: tumor growth inhibition", "setting": "[3]; higher doses (100 and 200 mg/kg)", "value": "significantly more active regarding tumor growth inhibition"},
      {"measurement": "Therapeutic effect: tumor growth inhibition", "setting": "[3]; lowest dose (50 mg/kg)", "value": "no significant effect"},
      {"measurement": "Autopsy at the end", "setting": "[3]; mouse, in vivo", "value": "no abnormal observations"},
      {"measurement": "signs of toxicity", "setting": "[3]; mouse, in vivo, po", "value": "no signs of toxicity were observed"},
      {"measurement": "Autopsy at the end", "setting": "[4]", "value": "no abnormal observations"},
      {"measurement": "body weight loss", "setting": "[4]", "value": "moderate body weight loss"},
      {"measurement": "signs of toxicity", "setting": "[4]", "value": "no signs of toxicity were observed"}
    ]}
  ]
}
